Assay results as given in patent publication US20090048214A1, “Methods for Treating Renal Tumors Using 2, 4-Pyrimidinediamine Drug and Prodrug Compounds” (RIGEL PHARMACEUTICALS, INC, priority 2006, published 2009).

Experiments:
HOP-62 = experiment: cells; details: Homo sapiens
HT29 = details: HT29, Colon Cancer; besylate salt
LOX I MVI [1] = experiment: cells; details: Homo sapiens, LOX IMVI
HS 578T = details: Breast Cancer, besylate salt
K-562 = experiment: cells; details: Homo sapiens
MDA-MB-435 = details: MDA-MB-435, Breast Cancer; besylate salt
NCI/ADR-RES [2] = experiment: cells; details: Homo sapiens
MOLT-4 [3] = experiment: cells; details: Homo sapiens
SNB-75 [4] = experiment: cells; details: Homo sapiens
A498 = experiment: cells; details: Homo sapiens
SK-MEL-2 = experiment: cells; details: Homo sapiens
SN12C [5] = experiment: cells; details: Homo sapiens
UACC-257 = details: UACC-257, Melanoma; besylate salt
MALME-3M = details: Melanoma, besylate salt
NCI-H322M = experiment: cells; details: Homo sapiens
SN12C [6] = details: Renal Cancer, besylate salt
COLO 205 = details: COLO 205, Colon Cancer; besylate salt
SF-268 = details: SF-268, CNS Cancer; besylate salt
NCI/ADR-RES [7] = details: Breast Cancer, besylate salt
NCI-H23 = details: NCI-H23, Non-Small Cell Lung Cancer; besylate salt
ACHN [8] = experiment: cells; details: Homo sapiens
SF-295 = experiment: cells; details: Homo sapiens, SF-295, read-out: LC50
CAKI-1 = details: CAKI-1, Renal Cancer; besylate salt
LOX I MVI [9] = details: Melanoma, besylate salt
KM12 = details: KM12, Colon Cancer; besylate salt
MOLT-4 [10] = details: MOLT-4, Leukemia; besylate salt
SF-539 = experiment: cells; details: Homo sapiens
T-47D = details: Breast Cancer, besylate salt
UO-31 = details: UO-31, Renal Cancer; besylate salt
NCI-H226 = experiment: cells; details: Homo sapiens
UACC-62 = experiment: cells; details: Homo sapiens, UACC-62, read-out: LC50
IGROV1 = experiment: cells; details: Homo sapiens
SNB-75 [11] = details: SNB-75, CNS Cancer; besylate salt
U251 = experiment: cells; details: Homo sapiens, U-251, read-out: LC50
HCC-2998 = experiment: cells; details: Homo sapiens
TK-10 = experiment: cells; details: Homo sapiens, TK-10, read-out: LC50
M14 = experiment: cells; details: Homo sapiens
ACHN [12] = details: Renal Cancer, besylate salt
MDA-MB-231/ATCC = experiment: cells; details: Homo sapiens, MDA-MB-231, read-out: LC50

Q: Which IC50 (HOP-62; HOP-62, read-out: G150) does the source give for COc1cc(Nc2ncc(F)c(Nc3ccc4c(n3)NC(=O)C(C)(C)O4)n2)cc(OC)c1OC [Compound 1] here?
A: 0.537 µM

Q: What about the CC50 (HOP-62; HOP-62, read-out: LC50) of the same compound?
A: > 100 µM

Q: What about the TGI (HT29) of the same compound?
A: >1.00E−4

Q: What about the IC50 (LOX I MVI [1]; read-out: G150) of the same compound?
A: 1.13 µM

Q: And the CC50 (LOX I MVI [1]; read-out: LC50)?
A: > 100 µM

Q: What about the TGI (HS 578T) of the same compound?
A: >1.00E−4

Q: And the IC50 (K-562; K562, read-out: G150)?
A: > 100 µM

Q: What about the CC50 (K-562; K562, read-out: LC50) of the same compound?
A: > 100 µM

Q: What about the TGI (MDA-MB-435) of the same compound?
A: >1.00E−4

Q: And the IC50 (NCI/ADR-RES [2]; read-out: G150)?
A: > 100 µM

Q: And the CC50 (NCI/ADR-RES [2]; read-out: LC50)?
A: > 100 µM

Q: What about the IC50 (MOLT-4 [3]; MOLT-4, read-out: G150) of the same compound?
A: 4.82 µM

Q: What about the CC50 (MOLT-4 [3]; MOLT-4, read-out: LC50) of the same compound?
A: > 100 µM

Q: And the IC50 (SNB-75 [4]; SNB-75, read-out: G150)?
A: 0.871 µM

Q: What about the CC50 (SNB-75 [4]; SNB-75, read-out: LC50) of the same compound?
A: > 100 µM

Q: What about the IC50 (A498; A498, read-out: G150) of the same compound?
A: 0.36 µM

Q: What about the CC50 (A498; A498, read-out: LC50) of the same compound?
A: > 100 µM

Q: And the IC50 (SK-MEL-2; SK-MEL-2, read-out: G150)?
A: > 100 µM

Q: And the CC50 (SK-MEL-2; SK-MEL-2, read-out: LC50)?
A: > 100 µM

Q: What about the IC50 (SN12C [5]; read-out: G150) of the same compound?
A: 0.698 µM

Q: And the CC50 (SN12C [5]; read-out: LC50)?
A: > 100 µM

Q: What about the TGI (UACC-257) of the same compound?
A: >1.00E−4

Q: And the TGI (MALME-3M)?
A: >1.00E−4

Q: And the IC50 (NCI-H322M; read-out: G150)?
A: > 100 µM

Q: What about the CC50 (NCI-H322M; read-out: LC50) of the same compound?
A: > 100 µM

Q: And the TGI (SN12C [6])?
A: >1.00E−4

Q: What about the TGI (COLO 205) of the same compound?
A: >1.00E−4

Q: And the TGI (SF-268)?
A: >1.00E−4

Q: What about the TGI (NCI/ADR-RES [7]) of the same compound?
A: >1.00E−4

Q: What about the TGI (NCI-H23) of the same compound?
A: >1.00E−4

Q: And the IC50 (ACHN [8]; read-out: G150)?
A: 1.24 µM

Q: What about the CC50 (ACHN [8]; read-out: LC50) of the same compound?
A: > 100 µM

Q: What about the CC50 (SF-295) of the same compound?
A: > 100 µM

Q: What about the TGI (CAKI-1) of the same compound?
A: 2.44E−6

Q: What about the TGI (LOX I MVI [9]) of the same compound?
A: 1.13E−6

Q: And the TGI (KM12)?
A: >1.00E−4

Q: And the TGI (MOLT-4 [10])?
A: >1.00E−4

Q: What about the IC50 (SF-539; SF-539, read-out: G150) of the same compound?
A: 0.605 µM

Q: What about the CC50 (SF-539; SF-539, read-out: LC50) of the same compound?
A: > 100 µM

Q: What about the TGI (T-47D) of the same compound?
A: >1.00E−4

Q: What about the TGI (UO-31) of the same compound?
A: >1.00E−4

Q: What about the IC50 (NCI-H226; NCI-H226, read-out: G150) of the same compound?
A: 0.497 µM

Q: What about the CC50 (NCI-H226; NCI-H226, read-out: LC50) of the same compound?
A: > 100 µM

Q: And the CC50 (UACC-62)?
A: > 100 µM

Q: And the IC50 (IGROV1; IGROV-1, read-out: G150)?
A: 0.796 µM

Q: And the CC50 (IGROV1; IGROV-1, read-out: LC50)?
A: > 100 µM

Q: What about the TGI (SNB-75 [11]) of the same compound?
A: >1.00E−4

Q: And the CC50 (U251)?
A: > 100 µM

Q: What about the IC50 (HCC-2998; HCC 2998, read-out: G150) of the same compound?
A: > 100 µM

Q: What about the CC50 (HCC-2998; HCC 2998, read-out: LC50) of the same compound?
A: > 100 µM

Q: And the CC50 (TK-10)?
A: > 100 µM

Q: And the IC50 (M14; M14, read-out: G150)?
A: > 100 µM

Q: And the CC50 (M14; M14, read-out: LC50)?
A: > 100 µM

Q: What about the TGI (ACHN [12]) of the same compound?
A: >1.00E−4

Q: And the CC50 (MDA-MB-231/ATCC)?
A: > 100 µM
